PubChem BioAssay AID248 (DTP/NCI, 2004)
“And” between values parts separate entries of the source, which are not always exact repeats. Equal values may be shown once. Toxic doses and inconclusive results are not listed. No stated cut-off is given here; in the data, active means T/C of 150% or more; inactive means T/C below 125%.

System: L1210 leukemia ip in BDF1 mice, survival T/C
Experiment: NCI In Vivo Anticancer Drug Screen. Data for tumor model L1210 Leukemia (intraperitoneal) in B6D2F1 (BDF1) mice
Settings: endpoint: mean survival time, higher = longer survival
Summary of the method: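 Tumor cells were implanted, animals were treated, and survival was followed. The result divides the treated measurement by the vehicle-control measurement.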

[1] = dose: 100.0 mg/kg/injection, schedule: Q01DX009 (ip), vehicle: saline
[2] = dose: 100.0 mg/kg/injection, schedule: Q04DX003 (ip), vehicle: saline
[3] = dose: 200.0 mg/kg/injection, schedule: Q01DX009 (ip), vehicle: saline
[4] = dose: 200.0 mg/kg/injection, schedule: Q04DX003 (ip), vehicle: saline
[5] = dose: 400.0 mg/kg/injection, schedule: Q04DX003 (ip), vehicle: saline
[6] = dose: 100.0 mg/kg/injection, schedule: Q04DX003 (ip), vehicle: Klucel (hydroxypropylcellulose) (HPC)
[7] = dose: 100.0 mg/kg/injection, schedule: Q01DX009 (ip), vehicle: Klucel (hydroxypropylcellulose) (HPC)
[8] = dose: 200.0 mg/kg/injection, schedule: Q01DX009 (ip), vehicle: Klucel (hydroxypropylcellulose) (HPC)
[9] = dose: 50.0 mg/kg/injection, schedule: Q01DX009 (ip), vehicle: saline with Tween-80
[10] = dose: 100.0 mg/kg/injection, schedule: Q01DX009 (ip), vehicle: saline with Tween-80
[11] = dose: 100.0 mg/kg/injection, schedule: Q04DX003 (ip), vehicle: saline with Tween-80
[12] = dose: 200.0 mg/kg/injection, schedule: Q04DX003 (ip), vehicle: saline with Tween-80
[13] = dose: 400.0 mg/kg/injection, schedule: Q04DX003 (ip), vehicle: saline with Tween-80

Measured: T/C

CC(=O)Nc1ccc2c3c(ccc([N+](=O)[O-])c13)CC2
inactive: [1] 90 % of control | [2] 108 % of control | [3] 93 % of control | [4] 110 % of control | dose: 400.0 mg/kg/injection, schedule: Q01DX009 (ip), vehicle: saline 108 % of control | [5] 110 % of control

O=[As](O)(O)Cc1cccc(F)c1
inactive: dose: 25.0 mg/kg/injection, schedule: Q04DX003 (ip), vehicle: Klucel (hydroxypropylcellulose) (HPC) 96 % of control | dose: 50.0 mg/kg/injection, schedule: Q04DX003 (ip), vehicle: Klucel (hydroxypropylcellulose) (HPC) 101 % of control | [6] 87 % of control

O=C(O)C1CC2(CCC1c1ccccc1)SCCS2 (stereo not given)
inactive: dose: 50.0 mg/kg/injection, schedule: Q01DX009 (ip), vehicle: Klucel (hydroxypropylcellulose) (HPC) 95 % of control | dose: 100.0 mg/kg/injection, schedule: Q01DX001 (ip), vehicle: Klucel (hydroxypropylcellulose) (HPC) 97 % of control | [7] 93 % of control | dose: 200.0 mg/kg/injection, schedule: Q01DX001 (ip), vehicle: Klucel (hydroxypropylcellulose) (HPC) 100 % of control | [8] 96 % of control | dose: 400.0 mg/kg/injection, schedule: Q01DX001 (ip), vehicle: Klucel (hydroxypropylcellulose) (HPC) 96 % of control

CCOC(=O)C(C(=O)CC)=P(c1ccccc1)(c1ccccc1)c1ccccc1
inactive: dose: 100.0 mg/kg/injection, schedule: Q01DX005 (ip), vehicle: Klucel (hydroxypropylcellulose) (HPC) 113 % of control | [7] 97 % of control | dose: 200.0 mg/kg/injection, schedule: Q01DX005 (ip), vehicle: Klucel (hydroxypropylcellulose) (HPC) 88 % of control | [8] 108 % of control | dose: 400.0 mg/kg/injection, schedule: Q01DX005 (ip), vehicle: Klucel (hydroxypropylcellulose) (HPC) 98 % of control | dose: 400.0 mg/kg/injection, schedule: Q01DX009 (ip), vehicle: Klucel (hydroxypropylcellulose) (HPC) 110 % of control

CCOC(=O)C1CC(=O)NC(N)=N1 (stereo not given)
inactive: dose: 100.0 mg/kg/injection, schedule: Q01DX Z (ip), vehicle: saline 95 % of control | dose: 200.0 mg/kg/injection, schedule: Q01DX Z (ip), vehicle: saline 100 % of control

O=C(O)c1cccc(N2C(=O)C=CC2=O)c1
inactive: dose: 25.0 mg/kg/injection, schedule: Q04DX002 (ip), vehicle: Klucel (hydroxypropylcellulose) (HPC) 101 % of control | dose: 50.0 mg/kg/injection, schedule: Q04DX002 (ip), vehicle: Klucel (hydroxypropylcellulose) (HPC) 101 % of control

CCOC(=O)c1cnn2c(SC)ncnc12
inactive: dose: 25.0 mg/kg/injection, schedule: Q04DX003 (ip), vehicle: saline with Tween-80 102 % of control | [9] 102 % of control | dose: 50.0 mg/kg/injection, schedule: Q04DX003 (ip), vehicle: saline with Tween-80 104 % of control | [10] 91 % of control | [11] 107 % of control

COc1ccc(C(=O)C(C)C=O)c(OCc2ccccc2)c1OC (stereo not given)
inactive: [9] 98 % of control | [10] 96 % of control | [11] 114 % of control | dose: 200.0 mg/kg/injection, schedule: Q01DX009 (ip), vehicle: saline with Tween-80 93 % of control | [12] 95 % of control | dose: 400.0 mg/kg/injection, schedule: Q01DX009 (ip), vehicle: saline with Tween-80 97 % of control | [13] 103 % of control

Cc1ccc(Nc2ccc(Nc3ccc(C)cc3)c3c2C(=O)c2ccccc2C3=O)cc1
inactive: [11] 86 % of control | [12] 87 % of control | [13] 92 % of control

CC(=O)NNc1ccnc(SCc2ccccc2)n1
inactive: dose: 100.0 mg/kg/injection, schedule: Q04DX003 (ip), vehicle: gum acacia 94 % of control | dose: 200.0 mg/kg/injection, schedule: Q04DX003 (ip), vehicle: gum acacia 87 % of control | dose: 400.0 mg/kg/injection, schedule: Q04DX003 (ip), vehicle: gum acacia 94 % of control

Cc1ccccc1C(=O)Nc1ccccc1
inactive: dose: 50.0 mg/kg/injection, schedule: Q01DX009 (ip), vehicle: saline 103 % of control | [1] 100 % of control | [3] 103 % of control

CN(C)N=Nc1ccc(CCC(=O)NN)cc1
inactive: dose: 20.0 mg/kg/injection, schedule: Q01DX Z (ip), vehicle: saline 111 % of control | dose: 30.0 mg/kg/injection, schedule: Q01DX Z (ip), vehicle: saline 114 % of control | dose: 67.0 mg/kg/injection, schedule: Q01DX Z (ip), vehicle: saline 91 % of control

Cc1c(C)c(O)c(SC(CC(=O)O)C(=O)O)c(C)c1O (stereo not given)
inactive: dose: 100.0 mg/kg/injection, schedule: Q04DX002 (ip), vehicle: Klucel (hydroxypropylcellulose) (HPC) 100 % of control | [6] 103 % of control | dose: 200.0 mg/kg/injection, schedule: Q04DX002 (ip), vehicle: Klucel (hydroxypropylcellulose) (HPC) 103 % of control | dose: 200.0 mg/kg/injection, schedule: Q04DX003 (ip), vehicle: Klucel (hydroxypropylcellulose) (HPC) 103 % of control | dose: 400.0 mg/kg/injection, schedule: Q04DX002 (ip), vehicle: Klucel (hydroxypropylcellulose) (HPC) 97 % of control | dose: 400.0 mg/kg/injection, schedule: Q04DX003 (ip), vehicle: Klucel (hydroxypropylcellulose) (HPC) 90 % of control

NC(N)=NCCCOc1ccc([N+](=O)[O-])cc1
inactive: dose: 25.0 mg/kg/injection, schedule: Q04DX003 (ip), vehicle: saline 96 % of control | dose: 50.0 mg/kg/injection, schedule: Q04DX003 (ip), vehicle: saline 100 % of control | [11] 101 % of control | [2] 94 % of control

CCCC(=O)OCC1OC(n2cnc3c(=S)nc(N)[nH]c32)C(OC(=O)CCC)C1OC(=O)CCC (stereo not given)
inactive: dose: 1.0 mg/kg/injection, schedule: Q01DX Z (ip), vehicle: carboxymethylcellulose (CMC) 109 % of control | dose: 1.5 mg/kg/injection, schedule: Q01DX Z (ip), vehicle: carboxymethylcellulose (CMC) 117 % of control | dose: 2.0 mg/kg/injection, schedule: Q01DX Z (ip), vehicle: carboxymethylcellulose (CMC) 112 % of control | dose: 2.3 mg/kg/injection, schedule: Q01DX Z (ip), vehicle: carboxymethylcellulose (CMC) 124 % of control | dose: 3.0 mg/kg/injection, schedule: Q01DX Z (ip), vehicle: carboxymethylcellulose (CMC) 117 % of control | dose: 9.7 mg/kg/injection, schedule: Q01DX Z (oral), vehicle: carboxymethylcellulose (CMC) 106 % of control | dose: 27.0 mg/kg/injection, schedule: Q01DX Z (oral), vehicle: carboxymethylcellulose (CMC) 115 % of control | dose: 37.0 mg/kg/injection, schedule: Q01DX Z (ip), vehicle: carboxymethylcellulose (CMC) 112 % of control and 118 % of control | dose: 125.0 mg/kg/injection, schedule: Q01DX Z (oral), vehicle: carboxymethylcellulose (CMC) 119 % of control
active: dose: 5.0 mg/kg/injection, schedule: Q01DX Z (ip), vehicle: carboxymethylcellulose (CMC) 154 % of control | dose: 17.0 mg/kg/injection, schedule: Q01DX Z (ip), vehicle: carboxymethylcellulose (CMC) 157 % of control and 159 % of control | dose: 25.0 mg/kg/injection, schedule: Q01DX Z (ip), vehicle: carboxymethylcellulose (CMC) 152 % of control

COc1ccc(C2N(C=O)CC34CC(=O)C=CC23C4)cc1O (stereo not given)
inactive: [2] 95 % of control | [4] 93 % of control | [5] 95 % of control

C#CC1CC2C3CCC4=CC(=O)CCC4(C)C3CCC2(C)C1N(C)C (stereo not given)
inactive: dose: 50.0 mg/kg/injection, schedule: Q01DX001 (sc), vehicle: steriod suspending solution 98 % of control | dose: 100.0 mg/kg/injection, schedule: Q01DX001 (sc), vehicle: steriod suspending solution 104 % of control

c1cc[c]([Sn]([c]2ccccc2)([c]2ccccc2)[n]2cncn2)cc1
inactive: dose: 6.25 mg/kg/injection, schedule: Q04DX002 (ip), vehicle: saline with Tween-80 101 % of control | dose: 12.5 mg/kg/injection, schedule: Q04DX002 (ip), vehicle: saline with Tween-80 93 % of control | dose: 25.0 mg/kg/injection, schedule: Q04DX002 (ip), vehicle: saline with Tween-80 112 % of control

Clc1ccc(CNc2ncnc3[nH]ncc23)cc1
inactive: dose: 100.0 mg/kg/injection, schedule: Q01DX001 (ip), vehicle: other 100 % of control | dose: 100.0 mg/kg/injection, schedule: Q04DX003 (ip), vehicle: other 104 % of control | dose: 200.0 mg/kg/injection, schedule: Q01DX001 (ip), vehicle: other 106 % of control | dose: 200.0 mg/kg/injection, schedule: Q04DX003 (ip), vehicle: other 113 % of control | dose: 400.0 mg/kg/injection, schedule: Q01DX001 (ip), vehicle: other 108 % of control | dose: 400.0 mg/kg/injection, schedule: Q04DX003 (ip), vehicle: other 103 % of control
